# “And” between values parts separate entries of the source, which are not always exact repeats. Equal values may be shown once.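 A five-concentration, 48-hour dose response in 96-well plates underlies each endpoint, interpolated linearly between surrounding concentrations. Abbreviation: GI50, concentration required for 50% inhibition of growth. TGI: concentration producing complete growth inhibition.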
# What was measured:
# Test in all cases: DTP human tumour cell line panel, 48 h
# [1] = tested on: CCRF-CEM leukemia
# [2] = tested on: HCT-15 colon
# [3] = tested on: UO-31 renal
# [4] = tested on: MALME-3M melanoma
# [5] = tested on: MOLT-4 leukemia
# [6] = tested on: OVCAR-4 ovarian
# [7] = tested on: SW-620 colon
# [8] = tested on: SK-MEL-28 melanoma
# [9] = tested on: MDA-MB-435
# [10] = tested on: MDA-MB-231 breast
compound,measurement,setting,value
COC(=O)[C@@H]1c2cc3c(c(O)c2[C@@H](OC)C[C@@]1(C)O)C(=O)c1c(O)cc2c(c1C3=O)OC1O[C@@]2(C)[C@H](O)[C@@H](N(C)C)[C@@H]1O,TGI,[1],> 150 µM
same,TGI,[2],2.23 µM
same,TGI,[3],3.12 µM
same,TGI,[4],2.13 µM
same,TGI,[5],> 150 µM
same,TGI,[6],1.76 µM
same,TGI,[7],2.21 µM
Nc1nc2c(ncn2CCOC(c2ccccc2)P(=O)(O)O)c(=O)[nH]1 (stereo not given),TGI,[2],> 100 µM
same,TGI,[3],> 100 µM
same,TGI,[4],> 100 µM
same,TGI,[8],> 100 µM
same,TGI,[7],> 100 µM
O=C1CC(Br)c2c(Cl)sc(Cl)c21 (stereo not given),TGI,[9],7.38 µM
same,TGI,[1],2.15 µM
same,TGI,[2],28.1 µM
same,TGI,[3],15.7 µM
same,TGI,[4],25.6 µM
same,TGI,[8],30.3 µM
same,TGI,[10],22.7 µM
same,TGI,[5],5.54 µM
same,TGI,[7],5.43 µM
CC(C)(C)OC(=O)C1=C(C(=O)OC(C)(C)C)SC2(S1)C(C(=O)OC(C)(C)C)=C(C(=O)OC(C)(C)C)Sc1c2ssc1=O,TGI,[9],> 100 µM
same,TGI,[1],> 100 µM
same,TGI,[2],> 100 µM
same,TGI,[3],> 100 µM
same,TGI,[4],> 100 µM
same,TGI,[8],> 100 µM
same,TGI,[10],> 100 µM
same,TGI,[5],95.9 µM
same,TGI,[6],> 100 µM
same,TGI,[7],> 100 µM
OCCSCCCSCCO,TGI,[1],> 100 µM
same,TGI,[2],> 100 µM
same,TGI,[3],> 100 µM
same,TGI,[8],> 100 µM
same,TGI,[10],> 100 µM
same,TGI,[5],> 100 µM
same,TGI,[6],> 100 µM
same,TGI,[7],> 100 µM
OC(c1cccs1)c1cc2ccccc2s1 (stereo not given),TGI,[9],> 10 µM
same,TGI,[1],> 10 µM
same,TGI,[2],> 10 µM
same,TGI,[3],> 10 µM
same,TGI,[8],> 10 µM
same,TGI,[10],> 10 µM
same,TGI,[5],> 10 µM
same,TGI,[6],> 10 µM
same,TGI,[7],> 10 µM
C=CC1OC(CCCOC(=O)C(C)(C)C)O[C@@H]1CC (stereo not given in full),TGI,[9],> 100 µM
same,TGI,[1],> 100 µM
same,TGI,[2],> 100 µM
same,TGI,[3],> 100 µM
same,TGI,[8],> 100 µM
same,TGI,[10],> 100 µM
same,TGI,[5],> 100 µM
same,TGI,[6],> 100 µM
same,TGI,[7],> 100 µM
CN(C)CCNCc1c2ccccc2c(CNCCN(C)C)c2ccccc12,TGI,[1],88.8 µM
same,TGI,[2],> 100 µM
same,TGI,[3],> 100 µM
same,TGI,[4],35.4 µM
same,TGI,[8],> 100 µM
same,TGI,[5],8.31 µM
same,TGI,[6],72 µM
same,TGI,[7],> 73.6 µM
CC(SC(=S)N1CCCCC1)C(=O)Nc1nnc(-c2ccc(Cl)cc2)o1 (stereo not given),TGI,[9],> 100 µM
same,TGI,[2],> 100 µM
same,TGI,[3],54 µM
same,TGI,[4],72.6 µM
same,TGI,[8],> 100 µM
same,TGI,[10],> 100 µM
same,TGI,[6],> 100 µM
same,TGI,[7],> 100 µM
COC(=O)C1=NN2c3ccccc3C(=O)OCCC2C1 (stereo not given),TGI,[9],> 100 µM
same,TGI,[1],> 100 µM
same,TGI,[2],> 100 µM
same,TGI,[3],> 100 µM
same,TGI,[4],> 100 µM
same,TGI,[8],> 100 µM
same,TGI,[10],> 100 µM
same,TGI,[5],> 100 µM
same,TGI,[6],> 100 µM
same,TGI,[7],> 100 µM
CCOC(=O)CCC(C(=O)OCC)n1nc2ccc(Nc3c(C)[n+]([O-])c4cc(Cl)ccc4[n+]3[O-])cc2n1 (stereo not given),TGI,[9],> 100 µM
same,TGI,[1],> 100 µM
same,TGI,[2],> 100 µM
same,TGI,[3],> 100 µM
same,TGI,[4],> 100 µM
same,TGI,[5],> 100 µM
same,TGI,[6],> 100 µM
same,TGI,[7],> 100 µM
Oc1cc(Cl)cc2cc(Br)cnc12,TGI,[9],> 100 µM
same,TGI,[1],9.51 µM
same,TGI,[2],> 100 µM
same,TGI,[3],> 72.1 µM
same,TGI,[4],21 µM
same,TGI,[8],> 100 µM
same,TGI,[10],> 100 µM
same,TGI,[5],6.96 µM
same,TGI,[6],> 100 µM
same,TGI,[7],> 100 µM
O=[N+]([O-])CC(SCc1ccccc1)c1ccc2c(c1)OCO2 (stereo not given),TGI,[9],7.93 µM
same,TGI,[1],8.74 µM
same,TGI,[2],15.9 µM
same,TGI,[3],22.2 µM
same,TGI,[4],30.1 µM
same,TGI,[8],17 µM
same,TGI,[10],25.6 µM
same,TGI,[5],21.1 µM
same,TGI,[6],27.1 µM
same,TGI,[7],15.4 µM
CCCCCCOc1ccc(NC2=C(Cl)C(=O)c3cccnc3C2=O)cc1,TGI,[9],3.62 µM
same,TGI,[1],> 10 µM
same,TGI,[2],3.96 µM
same,TGI,[3],2.47 µM
same,TGI,[4],4.85 µM
same,TGI,[8],5.03 µM
same,TGI,[5],> 10 µM
same,TGI,[7],3.88 µM
O=C1Oc2ccccc2C(=O)/C1=C/N1C(=O)/C(=C/c2ccc([N+](=O)[O-])cc2)SC1=S,TGI,[9],50.6 µM
same,TGI,[1],> 100 µM
same,TGI,[2],61.7 µM
same,TGI,[4],> 100 µM
same,TGI,[8],85.7 µM
same,TGI,[10],57.2 µM
same,TGI,[5],> 100 µM
same,TGI,[6],> 100 µM
same,TGI,[7],> 100 µM
Cc1cc2c(c3oc(C(O)(CO)C4CO4)cc(=O)c13)C(=O)c1c(O)cccc1C2=O (stereo not given),TGI,[9],0.0052 µM
same,TGI,[1],0.000111 µM
same,TGI,[2],0.00152 µM
same,TGI,[4],0.00527 µM and 0.00231 µM and 0.0152 µM
same,GI50,[8],0.00375 µM
same,TGI,[8],0.0095 µM and 0.00824 µM and 0.0382 µM
same,TGI,[10],0.00843 µM and 0.00411 µM
same,GI50,[5],> 37.5 µM
same,TGI,[5],> 37.5 µM
Cc1cccc(-c2cc(=O)c3ccc(C)nc3[nH]2)c1,TGI,[1],> 22.8 µM
same,TGI,[2],> 35.2 µM
same,TGI,[3],> 100 µM
same,TGI,[4],> 100 µM
same,TGI,[8],> 100 µM
same,TGI,[10],5.87 µM
same,TGI,[5],> 80.6 µM
same,TGI,[6],> 100 µM
NC(=O)c1n[nH]n(-c2ccccc2)c1=O,TGI,[9],> 100 µM
same,TGI,[1],> 100 µM
same,TGI,[2],> 100 µM
same,TGI,[3],> 100 µM
same,TGI,[4],> 100 µM
same,TGI,[8],> 100 µM
same,TGI,[10],> 100 µM
same,TGI,[5],> 100 µM
same,TGI,[7],> 100 µM
O=C1CN(c2ccc(Cl)cc2)C(=O)CN1CCN1CC(=O)N(c2ccc(Cl)cc2)CC1=O,TGI,[9],> 100 µM
same,TGI,[1],> 100 µM
same,TGI,[2],> 100 µM
same,TGI,[3],> 100 µM
same,TGI,[4],> 100 µM
same,TGI,[8],> 100 µM
same,TGI,[5],> 100 µM
same,TGI,[6],> 100 µM
same,TGI,[7],> 100 µM
O=[N+]([O-])c1ccc(Cl)cc1C1ON=C(c2ccccc2)N1C12CC3CC(CC(C3)C1)C2 (stereo not given),TGI,[9],> 100 µM
same,TGI,[1],> 100 µM
same,TGI,[2],> 100 µM
same,TGI,[3],> 100 µM
same,TGI,[4],> 100 µM
same,TGI,[8],> 100 µM
same,TGI,[10],> 100 µM
same,TGI,[5],> 100 µM
same,TGI,[6],> 100 µM
CC1=C(C2=C(C)C(=O)C(=O)c3cc(C)ccc32)c2ccc(C)cc2C(=O)C1=O,TGI,[1],> 100 µM
same,TGI,[2],> 100 µM
same,TGI,[3],0.305 µM
same,TGI,[4],0.435 µM
same,TGI,[10],0.91 µM
Oc1ccc(-c2nc3cc(C(F)(F)F)ccc3n2CC2CCCN3CCCCC23)cc1 (stereo not given),TGI,[9],26.3 µM
same,TGI,[1],31.8 µM
same,TGI,[2],30.1 µM
same,TGI,[3],25.1 µM
same,TGI,[8],29.6 µM
same,TGI,[10],27.6 µM
same,TGI,[5],33.5 µM
same,TGI,[6],31.2 µM
same,TGI,[7],28.4 µM
C[n+]1c2ccccc2c(CNC(CCC(N)=O)C(=O)O)c2ccccc21 (stereo not given),TGI,[9],9.95 µM
same,TGI,[1],3.29 µM
same,TGI,[2],4.31 µM
same,TGI,[3],10.3 µM
same,TGI,[4],10.6 µM
same,TGI,[8],12.1 µM
same,TGI,[5],10 µM
same,TGI,[6],9.24 µM
same,TGI,[7],1.95 µM
